Like-named read-outs stand apart in the source and are kept apart here.
What was measured:
[1] = tested on: A549/ATCC (NSC lung cancer); assay: NCI-60 screen (SRB, 48 h); conditions: Homo sapiens
[2] = tested on: MDA-MB-31/ATCC (Breast cancer); assay: NCI-60 screen (SRB, 48 h); conditions: Homo sapiens
[3] = tested on: UO-31 (Renal cancer); assay: NCI-60 screen (SRB, 48 h); conditions: Homo sapiens
[4] = tested on: U251 (CNS cancer); assay: NCI-60 screen (SRB, 48 h)
[5] = tested on: IGROV1 (Ovarian cancer); assay: NCI-60 screen (SRB, 48 h); conditions: Homo sapiens
[6] = tested on: HCT-15 (Colon cancer); assay: NCI-60 screen (SRB, 48 h); conditions: Homo sapiens
[7] = tested on: NCI/ADR-RES (Ovarian cancer); assay: NCI-60 screen (SRB, 48 h); conditions: Homo sapiens
[8] = tested on: panel of approximately 60 cancer cell lines; assay: NCI-60 screen (SRB, 48 h), full panel
[9] = tested on: UACC-257 (Melanoma); assay: NCI-60 screen (SRB, 48 h); conditions: Homo sapiens
[10] = tested on: RPMI-8226 (Leukemia); assay: NCI-60 screen (SRB, 48 h); conditions: Homo sapiens
[11] = tested on: Melanoma subpanel; assay: NCI-60 screen, subpanel; conditions: Homo sapiens
[12] = tested on: NCI-H322M (NSC lung cancer); assay: NCI-60 screen (SRB, 48 h); conditions: Homo sapiens
[13] = tested on: BT-549 (Breast cancer); assay: NCI-60 screen (SRB, 48 h); format: cell-based; conditions: Homo sapiens
[14] = tested on: NCI-H23 (NSC lung cancer); assay: NCI-60 screen (SRB, 48 h); conditions: Homo sapiens
[15] = tested on: DU-145 (Prostate cancer); assay: NCI-60 screen (SRB, 48 h); conditions: Homo sapiens
[16] = tested on: Leukemia subpanel; assay: cells; conditions: Homo sapiens
[17] = tested on: Prostate cancer subpanel; assay: NCI-60 screen, subpanel; conditions: Homo sapiens
[18] = tested on: SK-MEL-28 (Melanoma); assay: NCI-60 screen (SRB, 48 h); conditions: Homo sapiens
[19] = tested on: K-562 (Leukemia); assay: NCI-60 screen (SRB, 48 h); conditions: Homo sapiens
[20] = tested on: Breast cancer subpanel; assay: NCI-60 screen, subpanel; conditions: Homo sapiens
[21] = tested on: SK-MEL-2 (Melanoma); assay: NCI-60 screen (SRB, 48 h); conditions: Homo sapiens
[22] = tested on: OVCAR-3 (Ovarian cancer); assay: cells; conditions: Homo sapiens
[23] = tested on: SN12C (Renal cancer); assay: NCI-60 screen (SRB, 48 h); conditions: Homo sapiens
[24] = tested on: HS 578T (Breast cancer); assay: NCI-60 screen (SRB, 48 h); conditions: Homo sapiens
[25] = tested on: Colon Cancer subpanel; assay: NCI-60 screen, subpanel; conditions: Homo sapiens
[26] = tested on: LOX IMVI (Melanoma); assay: NCI-60 screen (SRB, 48 h); format: cell-based; conditions: Homo sapiens
[27] = tested on: HT29 (Colon cancer); assay: NCI-60 screen (SRB, 48 h); conditions: Homo sapiens

Work on CC(C)=C1CCC=C2CC[C@]3(C)[C@H](CC[C@@H]4[C@@]5(C)CCCNC(C)(C)[C@@H]5CC[C@]43C)[C@H]21 [Compound 9] yielded a GI50 ([1]; A549) of 1.79 µM, an IC (TGI) ([1]; A549, 48 h, read-out: TGI) of 3.52 µM and a GI50 [2] of 1.8 µM. For the same compound, the IC (TGI) ([2]; 48 h, read-out: TGI) was 3.47 µM, the CC50 ([2]; read-out: LC50) was 6.69 µM and the GI50 ([3]; UO-31) was 1.47 µM. It also gave an IC (TGI) ([3]; UO-31, 48 h, read-out: TGI) of 2.82 µM, a CC50 ([3]; UO-31, read-out: LC50) of 5.42 µM and a GI50 ([4]; Homo sapiens, U-251) of 1.69 µM. The IC (TGI) ([4]; Homo sapiens, U-251, 48 h, read-out: TGI) was 3.17 µM, the “Growth % of the Most Sensitive Cell Lines” value ([4]; U251, 1 dose 10 µM) was −90.81% and the GI50 ([5]; IGROV-1) was 1.73 µM. It also gave an IC (TGI) ([5]; IGROV-1, 48 h, read-out: TGI) of 3.27 µM, a GI50 ([6]; HCT-15) of 1.4 µM and an IC (TGI) ([6]; HCT-15, 48 h, read-out: TGI) of 2.81 µM. It also gave a GI50 [7] of 1.84 µM, an IC (TGI) ([7]; 48 h, read-out: TGI) of 3.52 µM and a CC50 ([7]; read-out: LC50) of 6.73 µM. The “Positive Cytostatic Effect (cell lines with percent growth 0 to 50 / total)” value ([8]; 1 dose 10 µM) was 15/58, the “Positive Cytotoxic Effect (cell lines with percent growth < 0 / total)” value ([8]; 1 dose 10 µM) was 24/58 and the “number of cancer cell lines the compound was active against” value ([8]; 1 dose 10 µM) was 36 cell lines. For the same compound, the activity at 10 µM ([8]; Homo sapiens, 48 h, read-out: Mean Growth, %) was 13.6%, the activity at 10 µM ([8]; Homo sapiens, 48 h, read-out: Range of Growth, %) was -100 to 107% and the IC (TGI) ([8]; Homo sapiens, 48 h, read-out: TGI MG_MID60, average over all cell lines) was 3.35 µM. The GI50 ([8]; Homo sapiens, read-out: GI50 MG_MID60) was 1.75 µM, the GI50 ([8]; Homo sapiens, read-out: GI50 against all human tumor cell lines) was less than 3 µM and the GI50 ([8]; Homo sapiens, read-out: GI50 against the most sensitive cell lines) was 0.2 to 0.94 µM. It also gave a CC50 ([8]; Homo sapiens, read-out: LC50 MG_MID60, average over all cell lines) of 6.43 µM, a GI50 ([9]; UACC-257) of 1.86 µM and an IC (TGI) ([9]; UACC-257, 48 h, read-out: TGI) of 3.63 µM. It also gave a CC50 ([9]; UACC-257, read-out: LC50) of 7.09 µM, a GI50 ([10]; RPMI-8226) of 2.06 µM and an IC (TGI) ([10]; RPMI-8226, 48 h, read-out: TGI) of 4.1 µM. For the same compound, the IC (TGI) ([11]; 48 h, read-out: TGI MG_MID) was 3.3 µM, the GI50 ([11]; read-out: GI50 MG_MID) was 1.77 µM and the CC50 ([11]; read-out: LC50 MG_MID) was 6.17 µM. It also gave a GI50 [12] of 1.68 µM, an IC (TGI) ([12]; 48 h, read-out: TGI) of 3.07 µM and a CC50 ([12]; read-out: LC50) of 5.61 µM. The GI50 ([13]; BT-549) was 1.66 µM, the IC (TGI) ([13]; BT-549, 48 h) was 3.14 µM and the CC50 ([13]; BT-549, read-out: LC50 (the source's name)) was 5.96 µM. The GI50 ([14]; NCI-H23) was 1.78 µM, the IC (TGI) ([14]; NCI-H23, 48 h, read-out: TGI) was 3.37 µM and the CC50 ([14]; NCI-H23, read-out: LC50) was 6.39 µM. The GI50 ([15]; DU-145) was 1.98 µM, the IC (TGI) ([15]; DU-145, 48 h, read-out: TGI) was 3.55 µM and the CC50 ([15]; DU-145, read-out: LC50) was 6.38 µM. It also gave an IC (TGI) ([16]; 48 h, read-out: TGI MG_MID) of 3.59 µM, a GI50 ([16]; read-out: GI50 MG_MID) of 1.55 µM and a CC50 ([16]; read-out: LC50 MG_MID) of 7.19 µM. For the same compound, the IC (TGI) ([17]; 48 h, read-out: TGI MG_MID) was 3.29 µM, the GI50 ([17]; read-out: GI50 MG_MID) was 1.78 µM and the CC50 ([17]; read-out: LC50 MG_MID) was 6.08 µM. It also gave a GI50 ([18]; SK-MEL-28) of 1.81 µM, an IC (TGI) ([18]; SK-MEL-28, 48 h, read-out: TGI) of 3.32 µM and a CC50 ([18]; SK-MEL-28, read-out: LC50) of 6.11 µM. The GI50 ([19]; K562) was 1.25 µM, the IC (TGI) ([19]; K562, 48 h, read-out: TGI) was 3.5 µM and the IC (TGI) ([20]; 48 h, read-out: TGI MG_MID) was 3.49 µM. For the same compound, the GI50 ([20]; read-out: GI50 MG_MID) was 1.72 µM, the CC50 ([20]; read-out: LC50 MG_MID) was 7.06 µM and the GI50 ([21]; SK-MEL-2) was 1.81 µM. It also gave an IC (TGI) ([21]; SK-MEL-2, 48 h, read-out: TGI) of 3.48 µM, a CC50 ([21]; SK-MEL-2, read-out: LC50) of 6.69 µM and a GI50 ([22]; OVCAR-3) of 1.91 µM. For the same compound, the IC (TGI) ([22]; OVCAR-3, 48 h, read-out: TGI) was 3.37 µM, the CC50 ([22]; OVCAR-3, read-out: LC50) was 5.93 µM and the GI50 [23] was 1.83 µM. For the same compound, the IC (TGI) ([23]; 48 h, read-out: TGI) was 3.44 µM, the CC50 ([23]; read-out: LC50) was 6.45 µM and the GI50 [24] was 1.79 µM. It also gave an IC (TGI) ([24]; 48 h, read-out: TGI) of 4.04 µM, a CC50 ([24]; read-out: LC50) of 9.11 µM and an IC (TGI) ([25]; 48 h, read-out: TGI MG_MID) of 3.03 µM. The GI50 ([25]; read-out: GI50 MG_MID) was 1.55 µM, the IC (TGI) ([26]; 48 h) was 3.01 µM and the activity at 10 µM ([26]; 48 h, 1 dose 10 µM, read-out: Growth % of the Most Sensitive Cell Lines) was -100%. The GI50 ([26]; read-out: GI50) was 1.65 µM, the CC50 ([26]; read-out: LC50 (the source's name)) was 5.49 µM and the GI50 ([27]; HT-29) was 0.94 µM. It also gave an IC (TGI) ([27]; HT-29, 48 h, read-out: TGI) of 2.31 µM.

Source: article PMC7914897, “Cytotoxic Potential of a-Azepano- and 3-Amino-3,4-SeCo-Triterpenoids” (International Journal of Molecular Sciences, 2021)
